Data from article PMC8231556, “Inhibiting Endothelial Cell Function in Normal and Tumor Angiogenesis Using BMP Type I Receptor Macrocyclic Kinase Inhibitors” (Cancers, 2021).

System: HUVECs
Assay: Cord formation assay, HUVEC-eGFP co-cultured with human dermal fibroblasts
Type: cell-based
Conditions: VEGF 15 ng/mL, 6 days; 0.5 µM (Sunitinib 1 μM)
Protocol: The cord formation assay was performed according to the IncuCyte Angiogenesis PrimeKit Assay protocol (Cell Player Angiogenesis PrimeKit, Essen BioScience). In brief, GFP labeled HUVEC cells and human dermal fibroblasts were mixed in a 1:20 ratio and seeded per well in a 96-well plate (3150 cells in total). Thereafter, the cells were exposed to VEGF alone or in combination with the compounds (at indicated concentrations) in a complete assay medium. Pictures were captured every 6 h for up to 9 days To monitor the cord formation. The medium was refreshed every 2 or 3 days. Cords formation was visualized by the GFP fluorescence, and cord length was quantified with the instrument’s software. All the experiments were repeated at least three times, and representative experiments are shown.

CCN(CC)CCNC(=O)c1c(C)[nH]c(/C=C2\C(=O)Nc3ccc(F)cc32)c1C [Sunitinib, reference compound]
effect on VEGF-induced EC cord formation: strongly suppressed
